Experimental data from patent publication EP4417607A1, “HETEROCYCLIC COMPOUND AS SOS1 INHIBITOR AND USES THEREOF” (Nanjing Zaiming Pharmaceutical Co., Ltd., priority 2021, dated 2023).

Biological target: T1, KRAS G12D::SOS1 binding (Homo sapiens, UniProt Q07889)
T1 construct: purchased Cisbio 63ADK000CB21PEH
T1 sequence (Q07889 1-1333): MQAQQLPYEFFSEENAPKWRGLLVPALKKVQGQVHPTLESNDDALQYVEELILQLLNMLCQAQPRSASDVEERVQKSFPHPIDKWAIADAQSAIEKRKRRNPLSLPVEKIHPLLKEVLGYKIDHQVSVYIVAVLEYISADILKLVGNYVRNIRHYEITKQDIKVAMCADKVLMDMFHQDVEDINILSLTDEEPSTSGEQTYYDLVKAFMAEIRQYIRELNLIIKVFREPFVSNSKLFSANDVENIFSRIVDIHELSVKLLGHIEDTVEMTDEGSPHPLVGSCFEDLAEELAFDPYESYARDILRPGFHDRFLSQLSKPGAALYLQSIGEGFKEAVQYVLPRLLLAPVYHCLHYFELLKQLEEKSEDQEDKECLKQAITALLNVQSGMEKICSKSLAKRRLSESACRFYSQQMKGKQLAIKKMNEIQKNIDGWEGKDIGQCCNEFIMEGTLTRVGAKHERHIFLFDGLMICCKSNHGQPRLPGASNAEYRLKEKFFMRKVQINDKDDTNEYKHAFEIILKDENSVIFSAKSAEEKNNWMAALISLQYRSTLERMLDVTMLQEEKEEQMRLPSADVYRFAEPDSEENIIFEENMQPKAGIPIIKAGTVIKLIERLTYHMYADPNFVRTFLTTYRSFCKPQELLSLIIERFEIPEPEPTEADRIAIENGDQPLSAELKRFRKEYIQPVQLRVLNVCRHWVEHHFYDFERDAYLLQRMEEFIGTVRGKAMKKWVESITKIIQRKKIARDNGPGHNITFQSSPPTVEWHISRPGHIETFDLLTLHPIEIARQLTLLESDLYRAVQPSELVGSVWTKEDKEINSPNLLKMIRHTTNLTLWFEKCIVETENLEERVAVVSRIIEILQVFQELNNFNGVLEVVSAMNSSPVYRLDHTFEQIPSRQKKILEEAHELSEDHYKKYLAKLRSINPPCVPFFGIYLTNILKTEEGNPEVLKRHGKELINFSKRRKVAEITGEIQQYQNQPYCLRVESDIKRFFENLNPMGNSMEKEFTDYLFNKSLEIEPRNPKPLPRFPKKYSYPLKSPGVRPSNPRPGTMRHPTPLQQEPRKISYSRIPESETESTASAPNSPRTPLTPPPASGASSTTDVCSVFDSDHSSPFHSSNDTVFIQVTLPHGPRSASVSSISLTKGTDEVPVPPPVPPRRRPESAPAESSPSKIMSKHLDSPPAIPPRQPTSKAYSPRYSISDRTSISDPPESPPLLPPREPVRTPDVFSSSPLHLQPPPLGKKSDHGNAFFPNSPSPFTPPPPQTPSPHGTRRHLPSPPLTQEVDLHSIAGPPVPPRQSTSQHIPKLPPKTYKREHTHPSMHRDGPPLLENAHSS
Test: KRAS G12D::SOS1 binding inhibition (KRAS-G12D/SOS1 binding assay kit, Cisbio)
Settings: GTP 10 µM
Experimental: The inhibitory effect of the compounds of the present invention on KRAS G12D:: SOS 1 binding was assessed using KRAS-G12D/SOS1 BINDING ASSAY KITS (Cisbio, Cat. No. 63ADK000CB21PEH).
The test compound (10 mM stock solution) was diluted […] to 0.1 mM with 100% DMSO and diluted at a ratio of 1:3 in a 384-well dilution plate for 11 concentrations. 0.1 µL of the gradiently-diluted compound solution was transferred to a 384-well plate using Echo. 2 replicate wells were set for each compound. The solution was centrifuged at 1000 rpm/min for 1 min. 5 µL of 4X KRAS G12D (final concentration 1X) and a GTP solution (final concentration 10 µM, sigma, Cat. No. V900868) were transferred to the 384-well reaction plate. The mixture was centrifuged at 1000 rpm/min for 1 min and incubated at 25 °C for 15 min. 5 µL of a 4X SOS1 solution (final concentration 1X) was transferred to the 384-well reaction plate. The solution was centrifuged at 1000 rpm/min for 1 min and incubated at 25 °C for 45 min. The final concentrations of BAY-293 compound were 10, 3.33, 1.11, 0.37, 0.12, 0.04, 0.014, 0.0046, 0.0015, 0.0005, 0.00017, and 0 µM. The final concentrations of the test compound were 10, 3.33, 1.11, 0.37, 0.12, 0.04, 0.014, 0.0046, 0.0015, 0.0005, 0.00017, and 0 µM. The final concentrations of DMSO were all 0.5%. 10 µL of a 2X assay reagent solution was transferred to the 384-well reaction plate. The solution was centrifuged at 1000 rpm/min for 1 min and incubated at 4 °C for 180 min. An Envision multifunctional microplate reader was used to read at an excitation wavelength of […] and an emission wavelength of 615 nm. The signal intensity of 665/615 ratio was used to characterize the degree of enzyme activity. Data processing: compound IC50 was fitted by Graphpad Prism 8 nonlinear regression equation: Negative control: DMSO
IC50 (half maximal inhibitory concentration) of the compound was obtained using the following nonlinear fitting formula: Y = Bottom + (Top−Bottom)/(1+10^(∧)((LogIC50−X)*HillSlope)) [formula] • X: log value of the concentration of the test compound • Y: inhibition percentage
Bottom is the minimum inhibition percentage, Top is the maximum inhibition percentage, and HillSlope is the Hill slope.

IC50 [nM] | SMILES
7.46 | COc1c(=O)n(N2CCOCC2)cc2c(N[C@H](C)c3cccc(C(F)F)c3F)nc(C)nc12 [Example 20, (R)-4-((1-(3-(difluoromethyl)-2-fluorophenyl)ethyl)amino)-8-methoxy-2-methyl-6-morpholinepyrido[4,3-d]pyrimidine-7(6H)-one]
6.55 | Cc1nc(N[C@H](C)c2cccc(C(F)F)c2F)c2cn(C3(CF)CC3)c(=O)c(N3CCOCC3)c2n1 [Example 34, (R)-4-((1-(3-(difluoromethyl)-2-fluorophenyl)ethyl)amino)-6-(1-(fluoromethyl)cyclopropyl)-2-methyl-8-morpholinylpyrido[4,3-d]pyrimidine-7(6H)-one]

More lines, now with the values behind:

SMILES | IC50 [nM]
Cc1nc(N[C@H](C)c2cccc(C(F)F)c2F)c2cn(C3(CF)CC3)c(=O)c(N3CCOC[C@@H]3C)c2n1 [Example 40, 4-(((R)-1-(3-(difluoromethyl)-2-fluorophenyl)ethyl)amino)-6-(1-(fluoromethyl)cyclopropyl)-2-methyl-8-((S)-3-methylmorpholine)pyrido[4,3-d]pyrimidine-7(6H)-one] | 3.84
[2H][C@](C)(Nc1nc(C)nc2c(N3CCOCC3)c(=O)n(C3(CF)CC3)cc12)c1cccc(C(F)F)c1F [Example 55, (R)-4-((1-(3-(difluoromethyl)-2-fluorophenyl)ethyl-1-d)amino)-6-(1-(fluoromethyl)cyclopropyl)-2-methyl-8-morpholinylpyrido[4,3-d]pyrimidine-7(6H)-one] | 6.3
[2H]C([2H])([2H])Oc1c(=O)n(C2(CF)CC2)cc2c(N[C@H](C)c3cccc(C(F)F)c3F)nc(C)nc12 [Example 23, (R)-4-((1-(3-(difluoromethyl)-2-fluorophenyl)ethyl)amino)-6-(1-(fluoromethyl)cyclopropyl)-8-(methoxy-d3)-2-methylpyrido[4,3-d]pyrimidine-7(6H)-one] | 4.17
